Data from publication PMC12206033, “Selective inhibition of TRPV3 channel by natural rosmarinic acid and its analogs for alleviation of skin lesions through downregulation of NF-κB pathway” (The Journal of Biological Chemistry, 2025).
Changes are numbered by the printed parent chain.

Columns and labels:
Format in all cases: cell-based
TRPV3 T665A = target: T1, TRPV3 T665A (Homo sapiens, UniProt Q8NET8, T665A); assay: single-channel inside-out patch recordings of TRPV3 T665A mutant; details: ROSA 100 μM co-applied with 2-APB 50 μM; n = 4
T1 construct: expressed in transfected cells; host or cells: HEK293T
T1 sequence (Q8NET8 1-790 T665A): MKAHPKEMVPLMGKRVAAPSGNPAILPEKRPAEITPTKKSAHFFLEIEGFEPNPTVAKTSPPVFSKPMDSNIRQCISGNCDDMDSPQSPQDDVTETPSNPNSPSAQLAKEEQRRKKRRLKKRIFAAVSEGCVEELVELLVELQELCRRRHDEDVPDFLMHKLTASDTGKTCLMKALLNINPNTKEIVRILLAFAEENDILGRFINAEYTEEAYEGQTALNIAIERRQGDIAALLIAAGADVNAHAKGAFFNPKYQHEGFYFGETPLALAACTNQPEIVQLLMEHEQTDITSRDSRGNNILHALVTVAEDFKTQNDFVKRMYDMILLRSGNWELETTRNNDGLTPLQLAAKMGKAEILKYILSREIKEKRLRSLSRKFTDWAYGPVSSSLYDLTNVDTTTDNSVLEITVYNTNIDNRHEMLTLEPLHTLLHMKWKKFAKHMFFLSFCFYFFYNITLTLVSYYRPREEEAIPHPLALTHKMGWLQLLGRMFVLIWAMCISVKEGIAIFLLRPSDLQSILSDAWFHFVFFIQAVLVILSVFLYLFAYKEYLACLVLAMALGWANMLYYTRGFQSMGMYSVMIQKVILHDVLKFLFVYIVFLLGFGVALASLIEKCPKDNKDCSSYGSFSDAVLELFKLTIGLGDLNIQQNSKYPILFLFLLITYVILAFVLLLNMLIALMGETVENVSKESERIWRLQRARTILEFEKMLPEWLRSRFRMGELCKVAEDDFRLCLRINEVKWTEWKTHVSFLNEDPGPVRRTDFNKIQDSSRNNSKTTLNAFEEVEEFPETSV
Protocol: (§1) HEK293T cell line was obtained from the Cell Resource Center, Peking Union Medical College. HEK293T cells were maintained in Dulbecco’s modified Eagle’s medium (DMEM, Gibco) supplemented with 10% fetal bovine serum at 37 °C with 5% CO2. […] The next day, determine the plasmid transfection status by observing green fluorescence based on expression of enhanced GFP as an indicator. […] When conducting experiments on HEK293T cells transfected with G573S point mutant TRPV3 plasmid, we replaced culture medium with or without compounds after 4 h of transfection and then observed green fluorescence of HEK293T cell after 10 h. As for the relative fluorescence intensity, we convert the image to 8 bit grayscale using ImageJ (Https://imagej.net/software/fiji/downloads) and set an appropriate threshold value to reduce background noise and enhance the image contrast.
(§2) All patch-clamp recordings were conducted 16 to 24 h after transfection using an EPC10 amplifier powered by PatchMaster software (HEKA) (https://www.heka.com/downloads/downloads_main.html#down_patchmaster) at room temperature. […] Currents were recorded at a potential ramp from −100 mV to +100 mV for 1000 ms with 1000-ms intervals (for whole-cell recordings) or a persistent potential of −60 mV (inside-out patch recordings). […]

hTRPV4 = target: T2, hTRPV4 (Homo sapiens, UniProt Q9HBA0); assay: whole-cell patch-clamp of hTRPV4 currents activated by GSK101; details: ROSA 50 μM; agonist GSK101 100 nM; read-out: inhibition of TRPV4 currents
T2 construct: expressed in transfected cells; host or cells: HEK293T
Protocol: as §1, §2

hTRPV1 = target: T3, hTRPV1 (Homo sapiens, UniProt Q8NER1); assay: whole-cell patch-clamp of hTRPV1 currents activated by capsaicin; details: ROSA 50 μM; agonist capsaicin 1 μM; read-out: inhibition of TRPV1 currents
T3 construct: expressed in transfected cells; host or cells: HEK293T
Protocol: as §1, §2

TRPV3 T636A = target: T4, TRPV3 T636A (Homo sapiens, UniProt Q8NET8, T636A); assay: whole-cell patch-clamp of hTRPV3 T636A mutant currents; details: ROSA 100 μM; 2-APB; read-out: inhibition of macroscopic hTRPV3 T636A currents
T4 construct: expressed in transfected cells; host or cells: HEK293T
T4 sequence (Q8NET8 1-790 T636A): T1 sequence (Q8NET8 1-790 T665A) with T636A, A665T
Protocol: as §1, §2

T3 sequence (Q8NER1 whole entry): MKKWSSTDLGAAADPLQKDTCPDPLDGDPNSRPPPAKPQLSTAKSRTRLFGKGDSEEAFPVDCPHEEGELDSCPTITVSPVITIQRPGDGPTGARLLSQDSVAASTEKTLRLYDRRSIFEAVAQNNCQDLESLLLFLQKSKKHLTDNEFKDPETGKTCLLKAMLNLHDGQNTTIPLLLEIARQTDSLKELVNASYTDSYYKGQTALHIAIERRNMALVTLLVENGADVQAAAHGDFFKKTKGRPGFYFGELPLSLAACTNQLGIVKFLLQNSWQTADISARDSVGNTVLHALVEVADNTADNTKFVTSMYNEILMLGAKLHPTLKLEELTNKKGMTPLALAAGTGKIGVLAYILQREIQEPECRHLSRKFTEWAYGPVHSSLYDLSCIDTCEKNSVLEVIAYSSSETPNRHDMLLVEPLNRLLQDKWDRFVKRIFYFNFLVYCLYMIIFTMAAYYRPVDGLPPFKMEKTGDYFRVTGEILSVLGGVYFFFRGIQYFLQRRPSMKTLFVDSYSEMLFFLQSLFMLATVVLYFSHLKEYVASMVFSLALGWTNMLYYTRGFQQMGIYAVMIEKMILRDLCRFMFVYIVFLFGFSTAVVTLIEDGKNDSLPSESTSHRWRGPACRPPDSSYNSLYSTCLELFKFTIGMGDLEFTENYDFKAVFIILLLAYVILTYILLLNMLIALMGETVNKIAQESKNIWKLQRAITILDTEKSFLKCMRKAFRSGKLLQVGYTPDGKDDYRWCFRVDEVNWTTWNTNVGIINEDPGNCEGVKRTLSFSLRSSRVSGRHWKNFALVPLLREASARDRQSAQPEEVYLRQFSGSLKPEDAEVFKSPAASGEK
T2 sequence (Q9HBA0 whole entry): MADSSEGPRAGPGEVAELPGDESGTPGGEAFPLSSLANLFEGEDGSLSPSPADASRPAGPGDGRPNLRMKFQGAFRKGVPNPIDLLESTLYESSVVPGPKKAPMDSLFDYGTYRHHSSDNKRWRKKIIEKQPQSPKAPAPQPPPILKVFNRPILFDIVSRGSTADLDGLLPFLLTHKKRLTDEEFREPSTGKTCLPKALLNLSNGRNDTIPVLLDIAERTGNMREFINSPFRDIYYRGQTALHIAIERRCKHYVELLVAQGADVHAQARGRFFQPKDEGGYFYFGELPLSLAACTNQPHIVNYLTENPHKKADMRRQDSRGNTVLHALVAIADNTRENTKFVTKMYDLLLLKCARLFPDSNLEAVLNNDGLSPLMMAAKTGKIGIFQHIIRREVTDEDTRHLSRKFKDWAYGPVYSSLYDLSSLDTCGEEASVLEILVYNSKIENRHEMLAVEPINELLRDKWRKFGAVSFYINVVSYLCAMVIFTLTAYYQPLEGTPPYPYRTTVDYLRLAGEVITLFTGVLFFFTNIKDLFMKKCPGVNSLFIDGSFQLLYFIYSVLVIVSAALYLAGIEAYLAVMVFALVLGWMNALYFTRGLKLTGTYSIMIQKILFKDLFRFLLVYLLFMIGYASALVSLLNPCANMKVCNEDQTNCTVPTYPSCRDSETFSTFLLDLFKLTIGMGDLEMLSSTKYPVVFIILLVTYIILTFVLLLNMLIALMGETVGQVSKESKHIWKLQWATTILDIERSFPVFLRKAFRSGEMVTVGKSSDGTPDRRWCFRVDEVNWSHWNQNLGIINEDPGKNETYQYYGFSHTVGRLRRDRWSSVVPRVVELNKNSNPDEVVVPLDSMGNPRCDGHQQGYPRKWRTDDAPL

## O=C(/C=C/c1ccc(O)c(O)c1)O[C@H](Cc1ccc(O)c(O)c1)C(=O)O [ROSA, rosmarinic acid]
TRPV3 T665A
  single-channel open probability, T665A mutant: 0.69
hTRPV4
  inhibition at 50 µM: 2 ± 7.3%
hTRPV1
  inhibition at 50 µM: 1.8 ± 11.7%
TRPV3 T636A
  inhibition at 100 µM: 14.7%
